Measured values: patent publication US20220340547A1, “INDOLE DERIVATIVE-CONTAINING INHIBITOR, PREPARATION METHOD THEREFOR AND APPLICATION THEREOF” (Shanghi Hansoh Biosoh Biomedical Co., Ltd., priority 2019, published 2022)

What was measured:
[1] = system: A431 cell line; experiment: Proliferation of A431 cell line (CellTiter-Glo); assay type: cell-based; details: Homo sapiens, A-431, 72 h
Experimental: Test Example 3. Determination of the Inhibitory Effect of the Compound of the Present Invention on the Proliferation of Ba/F3 EGFR Mutant Cell Line and A431 Cell Line
(§1) Experimental objective: The objective of this test example is to determine the inhibitory effect of the compound on the proliferation of Ba/F3 EGFR mutant cell line and A431 cell line
(§2) Experimental instruments: Microplate reader (BioTek Synergy H1), pipette (Eppendorf & Rainin).
(§3) A431 cells were cultured, and harvested after reaching a suitable density. The cells were adjusted to an appropriate cell concentration with the complete medium. The cell suspension were spread on a 96-well plate (90 μL per well), and the plate was placed in a 37° C., 5% CO2 incubator overnight to let the cells adhere to the wall. Solutions of the compound at different concentrations were formulated with DMSO and culture medium. Solvent control was set. The solution of the compound was added to the 96-well plate (10 L per well), and the plate was incubated in the 37° C., 5% CO2 incubator for 72 h. CellTiter-Glo solution was added and mixed well by shaking, and the plate was incubated in the dark for 10 minutes. The values were measured by BioTek Synergy H1 microplate reader.
(§4) Experimental Data Processing Method:
(§5) The inhibition rate was calculated using the […] signal value. The concentration and inhibition rate were fitted to a nonlinear regression curve by Graphpad Prism software to obtain the IC50 value.

[2] = target: Ba/F3 EGFR-D770-N771ins_SVD (Homo sapiens, UniProt P00533, DUP768-770, cells depend on it); experiment: Proliferation of Ba/F3 EGFR mutant cell line (CellTiter-Glo); assay type: cell-based, mouse; details: 72 h to 144 h, read-out: Ba/F3 EGFR-D770-N771ins_SVD IC50
Sequence of Ba/F3 EGFR-D770-N771ins_SVD (P00533 with tags, fused parts or gaps DUP768-770): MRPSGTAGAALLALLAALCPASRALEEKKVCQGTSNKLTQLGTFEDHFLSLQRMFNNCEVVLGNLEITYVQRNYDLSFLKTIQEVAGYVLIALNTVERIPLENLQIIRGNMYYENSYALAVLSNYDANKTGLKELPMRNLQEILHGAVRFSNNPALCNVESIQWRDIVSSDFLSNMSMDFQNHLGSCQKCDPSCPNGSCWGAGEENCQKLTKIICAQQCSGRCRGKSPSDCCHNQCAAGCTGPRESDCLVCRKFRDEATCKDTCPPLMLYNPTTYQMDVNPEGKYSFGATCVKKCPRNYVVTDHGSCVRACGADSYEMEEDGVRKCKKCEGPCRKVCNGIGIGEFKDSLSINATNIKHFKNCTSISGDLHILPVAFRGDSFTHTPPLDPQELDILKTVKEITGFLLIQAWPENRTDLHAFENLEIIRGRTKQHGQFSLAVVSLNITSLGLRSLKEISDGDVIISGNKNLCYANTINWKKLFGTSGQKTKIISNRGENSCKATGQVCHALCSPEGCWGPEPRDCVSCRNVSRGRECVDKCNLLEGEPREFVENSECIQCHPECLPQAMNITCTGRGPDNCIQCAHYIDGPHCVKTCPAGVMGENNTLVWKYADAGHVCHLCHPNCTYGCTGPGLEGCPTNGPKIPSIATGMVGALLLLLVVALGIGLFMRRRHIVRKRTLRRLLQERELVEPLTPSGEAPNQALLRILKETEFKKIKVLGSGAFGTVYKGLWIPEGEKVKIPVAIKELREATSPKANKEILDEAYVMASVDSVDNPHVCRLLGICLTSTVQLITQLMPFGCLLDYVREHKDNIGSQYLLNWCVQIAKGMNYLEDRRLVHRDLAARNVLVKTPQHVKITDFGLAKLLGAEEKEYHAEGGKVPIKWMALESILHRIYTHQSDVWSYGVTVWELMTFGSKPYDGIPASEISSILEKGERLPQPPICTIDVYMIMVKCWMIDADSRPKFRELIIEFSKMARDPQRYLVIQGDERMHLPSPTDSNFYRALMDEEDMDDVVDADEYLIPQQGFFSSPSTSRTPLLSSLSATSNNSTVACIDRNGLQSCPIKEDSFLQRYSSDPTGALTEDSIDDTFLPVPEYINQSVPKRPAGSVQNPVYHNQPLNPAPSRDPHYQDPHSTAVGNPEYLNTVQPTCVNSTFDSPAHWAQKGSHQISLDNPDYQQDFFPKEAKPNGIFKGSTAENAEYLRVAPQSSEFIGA
Experimental: Determination of the Inhibitory Effect of the Compound of the Present Invention on the Proliferation of Ba/F3 EGFR Mutant Cell Line and A431 Cell Line
as §1, §2
as §3, with “Ba/F3 EGFR mutant” for “A431”, “The solution of the compound was added to the 96-well plate (10 L per well), and the plate was incubated in the 37° C., 5% CO2 incubator for 72 h.” left out
as §4, §5

[3] = target: EGFR D770_N771insNPG (Homo sapiens, UniProt P00533, INS770NPG); experiment: TR-FRET inhibition of kinase activity of EGFR exon 20 insertion mutation; assay type: biochemical
Sequence of EGFR D770_N771insNPG (P00533 with tags, fused parts or gaps INS770NPG limits assumed): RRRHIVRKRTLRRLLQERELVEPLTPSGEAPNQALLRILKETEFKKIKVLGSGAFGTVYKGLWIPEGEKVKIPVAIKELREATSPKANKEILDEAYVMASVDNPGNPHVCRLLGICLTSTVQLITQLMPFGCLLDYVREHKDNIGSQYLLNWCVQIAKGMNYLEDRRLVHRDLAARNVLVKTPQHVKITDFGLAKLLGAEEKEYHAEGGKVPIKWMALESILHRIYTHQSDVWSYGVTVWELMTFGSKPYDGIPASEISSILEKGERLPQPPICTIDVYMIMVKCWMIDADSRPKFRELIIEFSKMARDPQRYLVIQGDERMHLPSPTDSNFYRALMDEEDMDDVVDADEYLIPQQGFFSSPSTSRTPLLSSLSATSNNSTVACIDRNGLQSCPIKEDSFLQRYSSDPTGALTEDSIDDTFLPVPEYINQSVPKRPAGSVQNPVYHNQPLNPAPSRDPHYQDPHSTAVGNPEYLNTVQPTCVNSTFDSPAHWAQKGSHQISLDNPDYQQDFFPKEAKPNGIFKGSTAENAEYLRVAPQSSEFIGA
Description: Determination of the Inhibitory Effect of the Compound of the Present Invention on the Kinase Activity of EGFR Exon 20 Insertion Mutation
Experimental objective: The objective of this test example is to determine the inhibitory effect of the compound on the kinase activity of EGFR exon 20 insertion mutation.
Experimental process: The experiment applied the TR-FRET (time-resolved fluorescence resonance energy transfer) method to study the inhibitory effect of the compound on the kinase activity of EGFR exon 20 insertion mutation. The experiment was carried out in a 384-well plate. Experimental buffer (50 mM HEPES, 1 mM EGTA, 10 mM MgCl2, 2 mM DTT, 0.01% Tween-20) was formulated. The compound was diluted in gradient to different concentrations with the experimental buffer. 2.5 μL of the solution was added to each well of the 384-well plate. 2.5 μL of diluted EGFR kinase solution (0.001-0.5 nM) was added, and the plate was incubated at room temperature for 10 minutes. 5 μL of ULight-poly GT/ATP mixed solution was added, and the plate was incubated at room temperature for 30 to 60 minutes. 5 μL of EDTA stop solution and 5 μL of Eu-labeled antibody detection solution were added, and the plate was incubated at room temperature for 1 hour.
as §4
The concentration and inhibition rate were fitted to a nonlinear regression curve by Graphpad Prism software to obtain the IC50 value.

| SMILES | IC50 [1] [nM] | GI50 [2] [nM] | IC50 [3] [nM] |
| --- | --- | --- | --- |
| CC#CC(=O)Nc1cc(Nc2ncc(C(=O)OC(C)C)c(-c3cn(C)c4ccccc34)n2)c(OC)cc1N(C)CC1CCCN1C (stereo not shown) [Example 1, Isopropyl 2-((5-(but-2-ynamido)-2-methoxy-4-(methyl((1-methylpyrrolidin-2-yl)methyl)amino)phenyl)amino)-4-(1-methyl-1H-indol-3-yl)pyrimidine-5-carboxylate] | 537 | 76 |  |
| C=CC(=O)Nc1cc(Nc2ncc(C(=O)OC(C)C)c(-c3cn(C)c4ccccc34)n2)c(OC)cc1N1C[C@H]2CN(C)C[C@H]2C1 [Example 24, Isopropyl 2-((5-acrylamido-2-methoxy-4-(5-methylhexahydropyrrolo[3,4-c]pyrrol-2(1H)-yl)phenyl)amino)-4-(1-methyl-1H-indol-3-yl)pyrimidine-5-carboxylate] | 124 | 15 |  |
| C=CC(=O)Nc1cc(Nc2ncc(C(=O)OC(C)C)c(-c3cn(C)c4ccccc34)n2)c(OC)cc1N1CC2(CN(C)C2)C1 [Example 26, Isopropyl 2-((5-acrylamido-2-methoxy-4-(6-methyl-2,6-diazaspiro[3.3]heptan-2-yl)phenyl)amino)-4-(1-methyl-1H-indol-3-yl)pyrimidine-5-carboxylate] |  |  | 0.36 |
| C=CC(=O)Nc1cc(Nc2ncc(-c3cnn(C)c3)c(-c3cn(C4CC4)c4ccccc34)n2)c(OC)cc1N1C[C@H]2CN(C)C[C@H]2C1 [Example 43, N-(5-((4-(1-Cyclopropyl-1H-indol-3-yl)-5-(1-methyl-1H-pyrazol-4-yl)pyrimidin-2-yl)amino)-4-methoxy-2-((3aR,6aS)-5-methylhexahydropyrrolo[3,4-c]pyrrol-2(1H)-yl)phenyl)acrylamide] |  | 21 | 0.29 |
| C=CC(=O)Nc1cc(Nc2ncc(C(=O)OC(C)C)c(-c3cn(C)c4ccccc34)n2)c(OC)cc1N1C[C@H]2CN(C)C[C@H]2C1 [Example 63, Isopropyl 2-((5-acrylamido-2-methoxy-4-((3aR,6aS)-5-methylhexahydropyrrolo[3,4-c]pyrrol-2(1H)-yl)phenyl)amino)-4-(1-methyl-1H-indol-3-yl)pyrimidine-5-carboxylate] |  |  | 0.62 |
| C=CC(=O)Nc1cc(Nc2ncc(-c3cnn(C)c3)c(-c3cn(C4CC4)c4ccccc34)n2)c(OC)cc1N1C[C@@H]2CCN(C)[C@@H]2C1 [Example 65, N-(5-((4-(1-Cyclopropyl-1H-indol-3-yl)-5-(1-methyl-1H-pyrazol-4-yl)pyrimidin-2-yl)amino)-4-methoxy-2-((3aS,6aS)-1-methylhexahydropyrrolo[3,4-b]pyrrol-5(1H)-yl)phenyl)acrylamide] |  | 15.1 | 0.29 |
| C=CC(=O)Nc1cc(Nc2ncc(-c3cnn(C)c3)c(-c3cn(C4CC4)c4ccccc34)n2)c(OC)cc1N1C[C@H]2CCN(C)[C@H]2C1 [Example 68] |  | 15.4 | 0.17 |
| C=CC(=O)Nc1cc(Nc2ncc(-c3ccc(F)cc3F)c(-c3cn(C4CC4)c4ccccc34)n2)c(OC)cc1N1C[C@H]2CN(C)C[C@H]2C1 [Example 69, N-(5-((4-(1-Cyclopropyl-1H-indol-3-yl)-5-(2,4-difluorophenyl)pyrimidin-2-yl)amino)-4-methoxy-2-((3aR,6aS)-5-methylhexahydropyrrolo[3,4-c]pyrrol-2(1H)-yl)phenyl)acrylamide] |  | 40 |  |
| C=CC(=O)Nc1cc(Nc2ncc(-c3ccnn3C)c(-c3cn(C4CC4)c4ccccc34)n2)c(OC)cc1N1C[C@H]2CN(C)C[C@H]2C1 [Example 70, N-(5-((4-(1-Cyclopropyl-1H-indol-3-yl)-5-(1-methyl-1H-pyrazol-5-yl)pyrimidin-2-yl)amino)-4-methoxy-2-((3aR,6aS)-5-methylhexahydropyrrolo[3,4-c]pyrrol-2(1H)-yl)phenyl)acrylamide] |  | 47.4 |  |
| C=CC(=O)Nc1cc(Nc2ncc(C#N)c(-c3cn(C4CC4)c4ccccc34)n2)c(OC)cc1N1C[C@@H]2CCN(C)[C@@H]2C1 [Example 110, N-(5-((5-Cyano-4-(1-cyclopropyl-1H-indol-3-yl)pyrimidin-2-yl)amino)-4-methoxy-2-((3aS,6aS)-1-methylhexahydropyrrolo[3,4-b]pyrrol-5(1H)-yl)phenyl)acrylamide] |  |  | 0.53 |

The next lines start with the values.

| IC50 [1] [nM] | GI50 [2] [nM] | IC50 [3] [nM] | SMILES |
| --- | --- | --- | --- |
|  |  | 0.64 | C=CC(=O)Nc1cc(Nc2ncc(C#N)c(-c3cn(C4CC4)c4ccccc34)n2)c(OC)cc1N1CC(N(C)C)C1 [Example 74, N-(5-((5-Cyano-4-(1-cyclopropyl-1H-indol-3-yl)pyrimidin-2-yl)amino)-2-(3-(dimethylamino)azetidin-1-yl)-4-methoxyphenyl)acrylamide] |
|  |  | 0.91 | C=CC(=O)Nc1cc(Nc2ncc(C#N)c(-c3cn(C4CC4)c4ccccc34)n2)c(OC)cc1N1CC[C@H](N(C)C)C1 [Example 77, (S)—N-(5-((5-cyano-4-(1-cyclopropyl-1H-indol-3-yl)pyrimidin-2-yl)amino)-2-(3-(dimethylamino)pyrrolidin-1-yl)-4-methoxyphenyl)acrylamide] |
|  | 17.4 | 0.27 | C=CC(=O)Nc1cc(Nc2ncc(-c3cnn(C)c3)c(-c3cn(C4CC4)c4ccccc34)n2)c(OC)cc1N(C)CCN(C)C [Example 85, N-(5-((4-(1-Cyclopropyl-1H-indol-3-yl)-5-(1-methyl-1H-pyrazol-4-yl)pyrimidin-2-yl)amino)-2-((2-(dimethylamino)ethyl)(methyl)amino)-4-methoxyphenyl)acrylamide] |
|  | 26.7 | 0.17 | C=CC(=O)Nc1cc(Nc2ncc(C#N)c(-c3cn(C4CC4)c4cc(OC)ccc34)n2)c(OC)cc1N(C)CCN(C)C [Example 112, N-(5-((5-Cyano-4-(1-cyclopropyl-6-methoxy-1H-indol-3-yl)pyrimidin-2-yl)amino)-2-((2-(dimethylamino)ethyl)(methyl)amino)-4-methoxyphenyl)acrylamide] |
|  |  | 0.7 | C=CC(=O)Nc1cc(Nc2ncc(C#N)c(-c3cn(C4CC4)c4ccccc34)n2)c(OC)cc1OCCN(C)C [Example 113, N-(5-((5-Cyano-4-(1-cyclopropyl-1H-indol-3-yl)pyrimidin-2-yl)amino)-2-(2-(dimethylamino)ethoxy)-4-methoxyphenyl)acrylamide] |
|  | 42.5 | 0.61 | C=CC(=O)Nc1cc(Nc2ncc(C#N)c(-c3cn(C4CC4)c4cc(F)ccc34)n2)c(OC)cc1N(C)CCN(C)C [Example 114, N-(5-((5-Cyano-4-(1-cyclopropyl-6-fluoro-1H-indol-3-yl)pyrimidin-2-yl)amino)-2-((2-(dimethylamino)ethyl)(methyl)amino)-4-methoxyphenyl)acrylamide] |
|  | 45.4 | 0.49 | C=CC(=O)Nc1cc(Nc2ncc(C#N)c(-c3cn(C4CC4)c4c(OC)cccc34)n2)c(OC)cc1N(C)CCN(C)C [Example 119, N-(5-((5-Cyano-4-(1-cyclopropyl-7-methoxy-1H-indol-3-yl)pyrimidin-2-yl)amino)-2-((2-(dimethylamino)ethyl)(methyl)amino)-4-methoxyphenyl)acrylamide] |
|  |  | 0.68 | C=CC(=O)Nc1cc(Nc2ncc(C#N)c(-c3cn(C4CC4)c4ncccc34)n2)c(OC)cc1N(C)CCN(C)C [Example 139, N-(5-((5-Cyano-4-(1-cyclopropyl-1H-pyrrolo[2,3-b]pyridin-3-yl)pyrimidin-2-yl)amino)-2-((2-(dimethylamino)ethyl)(methyl)amino)-4-methoxyphenyl)acrylamide] |
